These results are taken from US8729059B2, “Paramyxovirus family inhibitors and methods of use thereof” (priority 2007, dated 2014).

Broadly, the IC50 is the midpoint of a concentration-inhibition curve. As a reminder, the CC50 is the concentration at which the toxic effect on the cells reaches its halfway point.

Data set [1] deals with recombinant MV-Edm. Put plainly: virus yield reduction assay, MV-Edm. Format: cell-based, measles virus. The note with it: 36 hours post-infection.
Data set [2] concerns cells.
Data set [3] concerns the target Nipah virus polymerase (Nipah virus, UniProt Q997F0). It counts as cell-based.
Data set [4] relates to MV-Anc. Put plainly: compound specificity assay (BSA, higher virus inoculum). Format: cell-based, measles virus. On the procedure: Bovine serum albumin (BSA) was added to some samples at a final concentration of 10 mg/ml.
Data set [5] concerns MV. Put plainly: time of compound addition assay. Format: cell-based, measles virus. The note with it: 15 μM added 12 hours post-infection, harvest 20 hours post-infection. On the procedure: Cells (3×10^5/well in a 12-well plate format) were infected with MV at an MOI=[…] and compounds compound 16677 (final concentration 15 μM) or AS-48 (final concentration 75 μM) added at the indicated time points. Control cells were infected in the presence of equal amounts of DMSO. Twenty hours post-infection, when virus-induced cytopathicity exceeded 90%, cell-associated viral particles were harvested and subjected to TCID50 titration.

Data set [6] has as its system MV. As to the kind of experiment: virus entry assay (pH 3.0 wash). Format: cell-based, measles virus. The note with it: 10 μM, compared to DMSO-treated cells. On the procedure: For entry experiments, viral particles (MOI=0.5) were absorbed to 4×10^5 target cells in a 6-well plate format at 4° C. in the presence of 10 μM compound 16677 or equal amounts of DMSO for one hour. Cells were then shifted to 37° C. for 30 minutes, followed by inactivation of adsorbed, extracellular virions by a 2-minute acid treatment (40 mM sodium citrate, 10 mM KCl, 135 mM NaCl, pH 3.0) at 25° C. as previously described (37,39,49). Subsequent incubation for 30 hours at 37° C. in the presence or absence of 10 μM compound 16677 as specified was followed by determination of cell-associated virus titers by TCID50 titration.

The test system of data set [7] is panel of primary MV isolates. As to the kind of experiment: virus yield dose-response, primary MV isolates. It counts as cell-based, measles virus. On the procedure:
For assessment of clinical MV isolates, compound was added in 3-fold dilutions (37.5 μM highest). Thirty-six hours post-infection, cell-associated viral particles were harvested and titered as described above.

For data set [8], the system named is MV. As to the kind of experiment: dissociation assay (dialysis). It counts as cell-based, measles virus. The note with it: 15 μM, dialysis against PBS. As for the experimental part:
Viral particles (4×10^4 pfu, equaling an MOI=[…]) were mixed with compound 16677 (final concentration 15 μM) dissolved in phosphate buffered saline (PBS). After 10-minute incubation at 37° C. to allow compound binding, samples were either subjected to dialysis against PBS (molecular weight cut off=75 kDa, dilution factor 100,000×, 4° C., 10 hours) or incubated for 10 hours at 4° C. without dialysis. Control samples were treated with DMSO-only and subjected to dialysis. All samples were then transferred to 4×10^5 target cells seeded in a 6-well plate, cell-associated viral particles harvested 36 hours post-infection and viral titers determined by TCID50 titration.

For data set [9], the system named is human parainfluenzavirus type 2 (hPIV2). Format: cell-based. The note with it: read-out: IC50 against hPIV2.
Data set [10] has as its target MV polymerase complex (Measles virus, UniProt P12576). It counts as cell-based.
For data set [11], the system named is Vero cells. Put plainly: Trypan blue exclusion assay. The note with it: 30 hours.
In data set [12] the test system is MV-Anc. As to the kind of experiment: compound stability under physiological conditions. It counts as physicochemical, measles virus. The note with it: 15 μM, 37° C., pre-incubation for 24 hours. On the procedure: To assess compound stability under physiological conditions, inhibitor compound 16677 was dissolved in growth medium (15 μM final concentration) and incubated at 37° C. and physiological pH for different time intervals (24 hours longest). Control samples contained equal amounts of DMSO and were likewise incubated for 24 hours. Subsequent to pre-incubation, MV was added to the compound aliquots and the mixtures transferred to 4×10^5 target cells seeded in a 6-well plate format (resulting MOI=0.1 pfu/cell). Thirty-six hours post-infection, cell-associated viral particles were harvested and virus titers determined by TCID50 titration.

The subject of data set [13] is canine distemper virus (CDV). It counts as cell-based. The note with it: read-out: IC50 against CDV.
Data set [14] concerns the target T7 polymerase (Escherichia phage T7, UniProt P00573). Put plainly: in vitro protein transcription/translation. Format: biochemical. The note with it: 50 μM compound vs untreated. As for the experimental part: Rabbit reticulocyte lysates were mixed with 0.5 μg plasmid DNA encoding MV F under the control of the T7 promoter (pT7-MV F), 20 μCi [^35S]-methionine, and compound 16677 (final concentration 50 μM) or equal volumes of DMSO. Samples were incubated at 30° C. for 90 min, mixed with urea buffer (200 mM Tris, pH 6.8; 8 M urea; 5% SDS; 0.1 mM EDTA; 0.03% bromphenolblue; 1.5% dithiothreitol), and fractionated on 12% polyacrylamide gels. Dried gels were exposed to Kodak XAR films.

MV polymerase complex, sequence (P03422 whole entry): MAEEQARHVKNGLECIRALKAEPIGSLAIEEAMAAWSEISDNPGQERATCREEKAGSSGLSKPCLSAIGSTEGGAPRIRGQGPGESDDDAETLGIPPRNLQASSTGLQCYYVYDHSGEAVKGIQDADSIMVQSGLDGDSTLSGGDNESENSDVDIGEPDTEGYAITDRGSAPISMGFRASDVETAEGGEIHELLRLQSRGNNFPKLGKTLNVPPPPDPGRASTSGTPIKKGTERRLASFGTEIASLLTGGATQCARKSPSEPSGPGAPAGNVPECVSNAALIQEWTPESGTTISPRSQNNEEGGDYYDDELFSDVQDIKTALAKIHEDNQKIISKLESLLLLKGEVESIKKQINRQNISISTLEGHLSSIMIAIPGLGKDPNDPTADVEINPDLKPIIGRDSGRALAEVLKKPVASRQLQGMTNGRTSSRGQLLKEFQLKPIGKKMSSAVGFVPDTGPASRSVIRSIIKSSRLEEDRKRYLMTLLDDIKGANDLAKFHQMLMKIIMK
MV polymerase complex, sequence (P12576 whole entry): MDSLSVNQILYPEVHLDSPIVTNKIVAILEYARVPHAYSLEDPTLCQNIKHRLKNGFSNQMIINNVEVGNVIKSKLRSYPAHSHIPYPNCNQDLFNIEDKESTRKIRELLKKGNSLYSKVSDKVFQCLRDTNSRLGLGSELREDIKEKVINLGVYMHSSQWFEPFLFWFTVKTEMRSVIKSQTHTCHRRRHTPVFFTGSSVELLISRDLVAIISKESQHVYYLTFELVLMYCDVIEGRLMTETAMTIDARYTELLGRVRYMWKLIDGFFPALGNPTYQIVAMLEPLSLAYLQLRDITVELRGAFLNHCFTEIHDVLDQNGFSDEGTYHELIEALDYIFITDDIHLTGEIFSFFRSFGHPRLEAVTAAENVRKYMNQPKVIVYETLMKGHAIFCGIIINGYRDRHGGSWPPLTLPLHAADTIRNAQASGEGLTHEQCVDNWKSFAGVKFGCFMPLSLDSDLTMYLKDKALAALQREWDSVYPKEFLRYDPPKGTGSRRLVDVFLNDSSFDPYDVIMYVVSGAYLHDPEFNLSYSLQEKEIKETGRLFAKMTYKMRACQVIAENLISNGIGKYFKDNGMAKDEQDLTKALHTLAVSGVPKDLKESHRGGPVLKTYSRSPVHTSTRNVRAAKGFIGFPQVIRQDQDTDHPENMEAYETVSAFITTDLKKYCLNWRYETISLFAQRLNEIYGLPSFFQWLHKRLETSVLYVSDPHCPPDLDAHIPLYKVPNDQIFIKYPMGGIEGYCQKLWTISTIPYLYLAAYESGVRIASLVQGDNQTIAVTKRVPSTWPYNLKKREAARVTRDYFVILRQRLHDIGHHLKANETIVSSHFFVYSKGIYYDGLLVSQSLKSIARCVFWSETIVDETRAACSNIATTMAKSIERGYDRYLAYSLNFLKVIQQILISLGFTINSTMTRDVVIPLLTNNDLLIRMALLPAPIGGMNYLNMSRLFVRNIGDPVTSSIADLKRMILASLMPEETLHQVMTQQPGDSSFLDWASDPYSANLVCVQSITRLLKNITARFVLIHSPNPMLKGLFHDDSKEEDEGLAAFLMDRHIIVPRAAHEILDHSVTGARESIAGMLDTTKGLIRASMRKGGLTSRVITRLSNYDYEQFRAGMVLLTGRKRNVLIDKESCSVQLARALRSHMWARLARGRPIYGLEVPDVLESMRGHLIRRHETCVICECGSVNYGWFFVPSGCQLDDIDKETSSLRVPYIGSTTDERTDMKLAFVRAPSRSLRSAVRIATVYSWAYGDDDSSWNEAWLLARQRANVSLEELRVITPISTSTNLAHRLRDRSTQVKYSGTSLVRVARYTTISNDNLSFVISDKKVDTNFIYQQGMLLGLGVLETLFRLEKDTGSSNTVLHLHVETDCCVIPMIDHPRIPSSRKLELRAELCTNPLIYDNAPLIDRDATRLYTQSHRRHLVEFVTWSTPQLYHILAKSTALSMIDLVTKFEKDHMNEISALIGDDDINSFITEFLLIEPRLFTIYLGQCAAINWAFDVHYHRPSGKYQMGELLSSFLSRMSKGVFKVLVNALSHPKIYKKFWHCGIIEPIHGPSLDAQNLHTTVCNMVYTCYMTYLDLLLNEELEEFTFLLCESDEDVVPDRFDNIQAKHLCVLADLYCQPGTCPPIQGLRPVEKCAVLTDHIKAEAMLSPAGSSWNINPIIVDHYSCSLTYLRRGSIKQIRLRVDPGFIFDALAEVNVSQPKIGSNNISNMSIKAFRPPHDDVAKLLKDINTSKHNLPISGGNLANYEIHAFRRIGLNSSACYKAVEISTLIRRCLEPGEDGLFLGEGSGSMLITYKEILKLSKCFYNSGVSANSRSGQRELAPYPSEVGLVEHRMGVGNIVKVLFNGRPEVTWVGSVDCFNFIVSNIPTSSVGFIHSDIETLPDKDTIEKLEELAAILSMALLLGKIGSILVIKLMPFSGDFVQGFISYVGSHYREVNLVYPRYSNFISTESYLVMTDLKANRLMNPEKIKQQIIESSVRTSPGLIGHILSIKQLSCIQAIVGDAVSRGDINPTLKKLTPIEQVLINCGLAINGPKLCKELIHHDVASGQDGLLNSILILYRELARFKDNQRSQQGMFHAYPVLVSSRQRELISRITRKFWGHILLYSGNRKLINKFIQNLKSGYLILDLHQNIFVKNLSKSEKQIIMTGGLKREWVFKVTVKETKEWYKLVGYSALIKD
T7 polymerase, sequence (P00573 whole entry): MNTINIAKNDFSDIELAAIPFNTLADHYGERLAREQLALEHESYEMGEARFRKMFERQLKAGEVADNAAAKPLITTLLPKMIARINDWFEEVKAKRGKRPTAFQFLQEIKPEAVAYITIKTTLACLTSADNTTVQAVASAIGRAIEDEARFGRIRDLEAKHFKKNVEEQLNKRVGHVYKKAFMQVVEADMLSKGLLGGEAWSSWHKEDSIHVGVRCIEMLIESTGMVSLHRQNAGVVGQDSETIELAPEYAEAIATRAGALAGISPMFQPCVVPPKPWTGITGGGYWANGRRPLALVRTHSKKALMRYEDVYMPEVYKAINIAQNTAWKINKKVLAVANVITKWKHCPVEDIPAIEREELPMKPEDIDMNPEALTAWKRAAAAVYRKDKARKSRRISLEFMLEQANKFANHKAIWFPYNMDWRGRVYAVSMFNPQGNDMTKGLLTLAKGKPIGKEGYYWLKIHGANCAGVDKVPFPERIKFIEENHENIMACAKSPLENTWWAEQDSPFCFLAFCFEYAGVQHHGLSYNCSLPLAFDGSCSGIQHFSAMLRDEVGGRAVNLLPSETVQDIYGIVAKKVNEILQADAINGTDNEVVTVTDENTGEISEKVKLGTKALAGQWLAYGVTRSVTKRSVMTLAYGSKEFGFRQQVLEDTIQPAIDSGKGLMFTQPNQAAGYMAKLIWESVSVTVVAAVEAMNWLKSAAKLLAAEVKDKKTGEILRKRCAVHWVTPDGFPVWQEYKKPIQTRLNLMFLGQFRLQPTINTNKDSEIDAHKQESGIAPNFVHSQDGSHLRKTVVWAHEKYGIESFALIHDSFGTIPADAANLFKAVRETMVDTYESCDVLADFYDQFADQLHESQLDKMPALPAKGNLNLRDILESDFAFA

`O=C(NC(=O)N(c1ccc(Cl)cc1)S(=O)(=O)c1ccccc1)Nc1ccccc1Cl` [compound 15960]: in [1], the IC50 came to 3400 nM. In data set [2], this molecule yielded a CC50 of 120 µM.
With `Cn1nc(C(F)(F)F)cc1C(=O)Nc1ccc(S(=O)(=O)N2CCCC2)cc1` [compound 16677, 1-methyl-3-(trifluoromethyl)-N-[4-(pyrrolidinylsulfonyl)-phenyl]-1H-pyrazole-5-carboxamide], the “effect on Nipah virus minireplicon” value in data set [3] is recorded as “no effect”. Besides, the “change of IC50 with 10 mg/ml BSA or five-fold higher virus inoculum” value in data set [4] is “no significant differences were observed”. In addition, the figures for the IC50 in [1], in data set [9] and in data set [13] were approximately 240 nM, more than 75 µM and 28 µM, respectively. In data set [5], the “reduction in virus yields” value is given as “approximately 99.9%”. Also, the “effect of pH 3.0 wash on virus yields after absorption in presence of compound” value in data set [6] is “only slightly affected”. Besides, the “inhibition of MV-Ibd (genotype B3, resistant to MV entry inhibitors)” value in data set [7] is given as “efficiently inhibited”. In data set [8], the “inhibitory activity after dialysis prior to infection (reversibility)” value is “completely ablated by dialysis”. The half-maximal cytotoxic concentration (CC50) in data set [2] is more than 150 µM. Besides, the “CAT expression in MV minireplicon assay” value in data set [10] is on record as “strong dose-dependent inhibition of CAT expression”. The “IC50 in minigenome assay relative to IC50 against MV isolates” value in data set [10] is listed as “about 25 times”. For the same molecule, in [11] (compound concentration 500 μM), the “number of live cells, of solvent-treated controls” value was “approximately 80%”. The “antiviral activity after pre-incubation in cell culture medium” value in data set [12] is listed as “no loss in antiviral activity”. Also, the “F protein produced in cell-free transcription/translation” value in [14] is on record as “Equal amounts of F protein were detected”.
In the case of `Cc1ccc2[nH]c(=O)c(CNS(=O)(=O)c3ccccc3)c(-c3ccccc3)c2c1` [compound 68290], in [1], the IC50 was found to be 7700 nM. Also, the CC50 in [2] is more than 150 µM. The “concentration giving 50% reduction of the number of live cells” value in data set [11] (trypan-blue exclusion) is “approximately 75 μM”.
On to `Cc1ccc2nsnc2c1S(=O)(=O)Nc1ccc(Cl)cc1` [compound 99920], for which the IC50 in data set [1] was found to be 1300 nM. Also, the half-maximal cytotoxic concentration (CC50) in data set [2] was found to be 100 µM.
